Measurements published in patent US7709636B2, “Pyrazole sulfonylurea compound and herbicide” (Nissan Chemical Industries, Ltd., priority 2004, dated 2010).

Experiments:
[1] = tested on: direct sown rice; assay: Herbicidal effect test by soil treatment; format: in vivo, Oryza sativa; settings: 1.6 g/a, 3 weeks after treatment
Source text: (§1) Herbicidal Effect Test by Soil Treatment
(§2) Sterilized diluvial soil was placed in a plastic box having a size of length 21 cm, width 13 cm and depth 7 cm, seeds Echinochloa crus-galli, Digitaria adscendes, Setaria viridis, Avena fatua, Black-grass, Abutilon avicennae, Ambrosia elatior, Amaranthus retroflexus, Chenopodium album, Polygonum blumei, Stellaria media, Zea mays (corn), Glycine max (soybean), Oryza sativa (rice), Triticum aestivum (wheat) and Beta vulgaris (beat) were sown interspatially, covered with about 1.5 cm of soil, and then the wettable powder of the present invention prepared according to Formulation Example 1 was diluted with water so as to give a predetermined formulation amount, and the surface of the soil was uniformly treated with the diluted wettable powder by use of a small-sized spray. The herbicidal effect for each plant was investigated 3 weeks after treatment with the herbicide according to the criteria indicated in Test Example 1.

[2] = tested on: Echinochloa crus-galli; assay: Herbicidal effect test in submerged condition by treatment before weed-generation (1); format: in vivo; settings: 0.64 g/a, water surface treated on day of sowing, 3 weeks after treatment
Source text: (§3) Herbicidal Effect Test in Submerged Condition by Treatment Before Weed-Generation (1)
(§4) After alluvial soil was placed in a styrol cup of 1/30000 are, water was poured therein and mixed, and adjusted to a submerged condition of water depth 4 cm. After seeds of Echinochloa crus-galli, Scirpus juncoides and Monochoria vaginalis were sown in the cup, rice seedlings at 2.5th leaf stage were transplanted. On the day when the seeds were sown, the wettable powder of the present invention prepared according to Formulation Example 1 was diluted with water so as to give a predetermined formulation amount, and the surface of the water was treated with the diluted wettable powder. The plants were grown by putting the cup in a green house at 25 to 30° C., and investigated on herbicidal effect against each weed 3 weeks after treatment with the herbicide according to the following criteria.
(§5) 5 Herbicidal rate 90% or more (almost complete death)
(§6) 4 Herbicidal rate 70% or more and less than 90%
(§7) 3 Herbicidal rate 40% or more and less than 70%
(§8) 2 Herbicidal rate 20% or more and less than 40%
(§9) 1 Herbicidal rate 5% or more and less than 20%
(§10) 0 Herbicidal rate 5% or less (little effect)

[3] = tested on: Scirpus juncoides; assay: as above; format: in vivo; settings: 0.64 g/a, water surface treated on day of sowing, 3 weeks after treatment
Source text: as §3, §4, §5, §6, §7, §8, §9, §10

[4] = tested on: Monochoria vaginalis; assay: as above; format: in vivo; settings: 0.64 g/a, water surface treated on day of sowing, 3 weeks after treatment
Source text: as §3, §4, §5, §6, §7, §8, §9, §10

[5] = tested on: Echinochloa crus-galli; assay: Herbicidal effect test by soil treatment; format: in vivo; settings: 1.6 g/a, 3 weeks after treatment
Source text: as §1, §2

[6] = tested on: corn (Zea mays); assay: Herbicidal effect test by soil treatment; format: in vivo; settings: 1.6 g/a, 3 weeks after treatment
Source text: as §1, §2

[7] = tested on: Ambrosia elatior; assay: Herbicidal effect test by soil treatment; format: in vivo; settings: 1.6 g/a, 3 weeks after treatment
Source text: as §1, §2

[8] = tested on: Polygonum blumei; assay: Herbicidal effect test by soil treatment; format: in vivo; settings: 1.6 g/a, 3 weeks after treatment
Source text: as §1, §2

[9] = tested on: Black-grass; assay: Herbicidal effect test by soil treatment; format: in vivo; settings: 1.6 g/a, 3 weeks after treatment
Source text: as §1, §2

[10] = tested on: Setaria viridis; assay: Herbicidal effect test by soil treatment; format: in vivo; settings: 1.6 g/a, 3 weeks after treatment
Source text: as §1, §2

[11] = tested on: Amaranthus retroflexus; assay: Herbicidal effect test by soil treatment; format: in vivo; settings: 1.6 g/a, 3 weeks after treatment
Source text: as §1, §2

[12] = tested on: Avena fatua; assay: Herbicidal effect test by soil treatment; format: in vivo; settings: 1.6 g/a, 3 weeks after treatment
Source text: as §1, §2

[13] = tested on: Beta vulgaris (beet); assay: Herbicidal effect test by soil treatment; format: in vivo; settings: 1.6 g/a, 3 weeks after treatment
Source text: as §1, §2

[14] = tested on: Stellaria media; assay: Herbicidal effect test by soil treatment; format: in vivo; settings: 1.6 g/a, 3 weeks after treatment
Source text: as §1, §2

[15] = tested on: Chenopodium album; assay: Herbicidal effect test by soil treatment; format: in vivo; settings: 1.6 g/a, 3 weeks after treatment
Source text: as §1, §2

[16] = tested on: Triticum aestivum (wheat); assay: Herbicidal effect test by soil treatment; format: in vivo; settings: 1.6 g/a, 3 weeks after treatment
Source text: as §1, §2

[17] = tested on: Abutilon avicennae; assay: Herbicidal effect test by soil treatment; format: in vivo; settings: 1.6 g/a, 3 weeks after treatment
Source text: as §1, §2

[18] = tested on: soybean (Glycine max); assay: Herbicidal effect test by soil treatment; format: in vivo; settings: 1.6 g/a, 3 weeks after treatment
Source text: as §1, §2

[19] = tested on: Digitaria adscendes; assay: Herbicidal effect test by soil treatment; format: in vivo; settings: 1.6 g/a, 3 weeks after treatment
Source text: as §1, §2

[20] = tested on: Echinochloa crus-galli; assay: Herbicidal effect test by foliage treatment; format: in vivo; settings: 1.6 g/a; foliage treatment after growth of 14 days; 3 weeks after treatment
Source text: (§11) Herbicidal Effect Test by Foliage Treatment
(§12) Sterilized diluvial soil was placed in a plastic box having a size of length 21 cm, width 13 cm and depth 7 cm, seeds of Echinochloa crus-galli, Digitaria adscendes, Setaria viridis, Avena fatua, Black-grass, Abutilon avicennae, Ambrosia elatior, Amaranthus retroflexus, Chenopodium album, Polygonum blumei, Stellaria media, Zea mays, Glycine max, Oryza sativa, Triticum aestivum and Beta vulgaris were sown interspatially, covered with about 1.5 cm of soil, and then the plants were grown by putting the box in a green house at 25 to 30° C. After growth of 14 days, the wettable powder of the present invention prepared according to Formulation Example 1 was diluted with water so as to give a predetermined formulation amount, and the foliage part was uniformly treated with the diluted wettable powder by use of a small-sized spray. The herbicidal effect for each plant was investigated 3 weeks after treatment with the herbicide according to the criteria indicated in Test Example 1.

[21] = tested on: corn (Zea mays); assay: Herbicidal effect test by foliage treatment; format: in vivo; settings: 1.6 g/a; foliage treatment after growth of 14 days; 3 weeks after treatment
Source text: as §11, §12

[22] = tested on: Ambrosia elatior; assay: Herbicidal effect test by foliage treatment; format: in vivo; settings: 1.6 g/a; foliage treatment after growth of 14 days; 3 weeks after treatment
Source text: as §11, §12

[23] = tested on: Polygonum blumei; assay: Herbicidal effect test by foliage treatment; format: in vivo; settings: 1.6 g/a; foliage treatment after growth of 14 days; 3 weeks after treatment
Source text: as §11, §12

[24] = tested on: Setaria viridis; assay: Herbicidal effect test by foliage treatment; format: in vivo; settings: 1.6 g/a; foliage treatment after growth of 14 days; 3 weeks after treatment
Source text: as §11, §12

[25] = tested on: Amaranthus retroflexus; assay: Herbicidal effect test by foliage treatment; format: in vivo; settings: 1.6 g/a; foliage treatment after growth of 14 days; 3 weeks after treatment
Source text: as §11, §12

[26] = tested on: Avena fatua; assay: Herbicidal effect test by foliage treatment; format: in vivo; settings: 1.6 g/a; foliage treatment after growth of 14 days; 3 weeks after treatment
Source text: as §11, §12

[27] = tested on: Beta vulgaris (beet); assay: Herbicidal effect test by foliage treatment; format: in vivo; settings: 1.6 g/a; foliage treatment after growth of 14 days; 3 weeks after treatment
Source text: as §11, §12

[28] = tested on: Stellaria media; assay: Herbicidal effect test by foliage treatment; format: in vivo; settings: 1.6 g/a; foliage treatment after growth of 14 days; 3 weeks after treatment
Source text: as §11, §12

[29] = tested on: Chenopodium album; assay: Herbicidal effect test by foliage treatment; format: in vivo; settings: 1.6 g/a; foliage treatment after growth of 14 days; 3 weeks after treatment
Source text: as §11, §12

[30] = tested on: Triticum aestivum (wheat); assay: Herbicidal effect test by foliage treatment; format: in vivo; settings: 1.6 g/a; foliage treatment after growth of 14 days; 3 weeks after treatment
Source text: as §11, §12

[31] = tested on: Abutilon avicennae; assay: Herbicidal effect test by foliage treatment; format: in vivo; settings: 1.6 g/a; foliage treatment after growth of 14 days; 3 weeks after treatment
Source text: as §11, §12

[32] = tested on: soybean (Glycine max); assay: Herbicidal effect test by foliage treatment; format: in vivo; settings: 1.6 g/a; foliage treatment after growth of 14 days; 3 weeks after treatment
Source text: as §11, §12

[33] = tested on: Digitaria adscendes; assay: Herbicidal effect test by foliage treatment; format: in vivo; settings: 1.6 g/a; foliage treatment after growth of 14 days; 3 weeks after treatment
Source text: as §11, §12

[34] = tested on: direct sown rice; assay: Herbicidal effect test by foliage treatment; format: in vivo, Oryza sativa; settings: 1.6 g/a; foliage treatment after growth of 14 days; 3 weeks after treatment
Source text: as §11, §12

[35] = tested on: Echinochloa crus-galli; assay: Herbicidal effect test in submerged condition by treatment during weed-growth stage (1); format: in vivo; settings: 0.64 g/a, treated at 1st to 2nd leaf stage, 3 weeks after treatment
Description: (§13) Herbicidal Effect Test in Submerged Condition by Treatment During Weed-Growth Stage (1) After alluvial soil was placed in a styrol cup of 1/30000 are, water was poured therein and mixed, and adjusted to a submerged condition of water depth 4 cm. After seeds of Echinochloa crus-galli, Scirpus juncoides and Monochoria vaginalis were sown in the cup, the plants were grown by putting the cup in a green house at 25 to 30° C. When Echinochloa crus-galli, Scirpus juncoides and Monochoria vaginalis reached 1st to 2nd leaf stage, the wettable powder of the present invention prepared according to Formulation Example 1 was diluted with water so as to give a predetermined formulation amount, and the surface of the water was treated with the diluted wettable powder. The herbicidal effect for each plant was investigated 3 weeks after treatment with the herbicide according to the criteria indicated in Test Example 1.

[36] = tested on: Scirpus juncoides; assay: as above; format: in vivo; settings: 0.64 g/a, treated at 1st to 2nd leaf stage, 3 weeks after treatment
Description: as §13

[37] = tested on: Monochoria vaginalis; assay: as above; format: in vivo; settings: 0.64 g/a, treated at 1st to 2nd leaf stage, 3 weeks after treatment
Description: as §13

COc1cc(OC)nc(NC(=O)NS(=O)(=O)c2c(C3=NOCC(C)(C)O3)c(Cl)nn2C)n1 [Compound 3, N-((4,6-dimethoxypyrimidin-2-yl)aminocarbonyl)-3-chloro-4-(5,5-dimethyl-5H,6H-1,4,2-dioxadin-3-yl)-1-methylpyrazole-5-sulfonamide]
herbicidal effect, d: direct sown rice [1]: 0 (Herbicidal rate 5% or less (little effect)) | herbicidal effect, A: Echinochloa crus-galli [2]: 5 (Herbicidal rate 90% or more (almost complete death)) | herbicidal effect, B: Scirpus juncoides [3]: 5 (Herbicidal rate 90% or more (almost complete death)) | herbicidal effect, C: Monochoria vaginalis [4]: 5 (Herbicidal rate 90% or more (almost complete death)) | herbicidal effect, A: Echinochloa crus-galli [5]: 2 (Herbicidal rate 20% or more and less than 40%) | herbicidal effect, b: corn (Zea mays) [6]: 3 (Herbicidal rate 40% or more and less than 70%) | herbicidal effect, I: Ambrosia elatior [7]: 5 (Herbicidal rate 90% or more (almost complete death)) | herbicidal effect, L: Polygonum blumei [8]: 5 (Herbicidal rate 90% or more (almost complete death)) | herbicidal effect, G: Black-grass [9]: 3 (Herbicidal rate 40% or more and less than 70%) | herbicidal effect, E: Setaria viridis [10]: 0 (Herbicidal rate 5% or less (little effect)) | herbicidal effect, J: Amaranthus retroflexus [11]: 4 (Herbicidal rate 70% or more and less than 90%) | herbicidal effect, F: Avena fatua [12]: 0 (Herbicidal rate 5% or less (little effect)) | herbicidal effect, f: Beta vulgaris (beet) [13]: 4 (Herbicidal rate 70% or more and less than 90%) | herbicidal effect, M: Stellaria media [14]: 5 (Herbicidal rate 90% or more (almost complete death)) | herbicidal effect, K: Chenopodium album [15]: 3 (Herbicidal rate 40% or more and less than 70%) | herbicidal effect, e: Triticum aestivum (wheat) [16]: 0 (Herbicidal rate 5% or less (little effect)) | herbicidal effect, H: Abutilon avicennae [17]: 5 (Herbicidal rate 90% or more (almost complete death)) | herbicidal effect, c: soybean (Glycine max) [18]: 1 (Herbicidal rate 5% or more and less than 20%) | herbicidal effect, D: Digitaria adscendes [19]: 2 (Herbicidal rate 20% or more and less than 40%) | herbicidal effect, A: Echinochloa crus-galli [20]: 4 (Herbicidal rate 70% or more and less than 90%) | herbicidal effect, b: corn (Zea mays) [21]: 4 (Herbicidal rate 70% or more and less than 90%) | herbicidal effect, I: Ambrosia elatior [22]: 5 (Herbicidal rate 90% or more (almost complete death)) | herbicidal effect, L: Polygonum blumei [23]: 3 (Herbicidal rate 40% or more and less than 70%) | herbicidal effect, E: Setaria viridis [24]: 2 (Herbicidal rate 20% or more and less than 40%) | herbicidal effect, J: Amaranthus retroflexus [25]: 0 (Herbicidal rate 5% or less (little effect)) | herbicidal effect, F: Avena fatua [26]: 0 (Herbicidal rate 5% or less (little effect)) | herbicidal effect, f: Beta vulgaris (beet) [27]: 3 (Herbicidal rate 40% or more and less than 70%) | herbicidal effect, M: Stellaria media [28]: 5 (Herbicidal rate 90% or more (almost complete death)) | herbicidal effect, K: Chenopodium album [29]: 2 (Herbicidal rate 20% or more and less than 40%) | herbicidal effect, e: Triticum aestivum (wheat) [30]: 0 (Herbicidal rate 5% or less (little effect)) | herbicidal effect, H: Abutilon avicennae [31]: 5 (Herbicidal rate 90% or more (almost complete death)) | herbicidal effect, c: soybean (Glycine max) [32]: 5 (Herbicidal rate 90% or more (almost complete death)) | herbicidal effect, D: Digitaria adscendes [33]: 3 (Herbicidal rate 40% or more and less than 70%) | herbicidal effect, d: direct sown rice [34]: 0 (Herbicidal rate 5% or less (little effect)) | herbicidal effect, A: Echinochloa crus-galli [35]: 5 (Herbicidal rate 90% or more (almost complete death)) | herbicidal effect, B: Scirpus juncoides [36]: 5 (Herbicidal rate 90% or more (almost complete death)) | herbicidal effect, C: Monochoria vaginalis [37]: 5 (Herbicidal rate 90% or more (almost complete death))
